Experiments:
[1] = Dissociation constant, pKa of the compound by UV spectrum analysis; format: physicochemical
V79 = test: Cellular uptake in chinese hamster V79 cells at 10 uM after 1 hr by flow cytometry; format: ADME, cell-based, Cricetulus griseus; details: v79, 1 h

SMILES	pKa [1]	Drug uptake (V79)
CN(C)c1ccc2c(c1)Oc1c(ccc3cc(O)ccc13)C21OC(=O)c2c(F)c(F)c(F)c(F)c21 (stereo unspecified)	7.38	Active
C[N+](C)=c1ccc2c(-c3ccccc3C(=O)O)c3ccc4cc(O)ccc4c3oc-2c1	7.62	Active
CN(C)c1ccc2c(c1)Oc1c(ccc3cc(O)ccc13)C21OC(=O)c2c(Cl)c(Cl)c(Cl)c(Cl)c21 (stereo unspecified)	7.9	Active
